Literature values as cited in patent publication US20050181001A1, “Topical formulation for insect repellents” (priority 2003, published 2005).

Key:
mosquitoes [1] = test system: mosquitoes
mosquitoes [2] = settings: oral

For `CC1=COC(=O)C2C(C)CCC12` (stereo not drawn) [nepetalactone], the “effectiveness at repelling mosquitoes relative to DEET” value (mosquitoes [1]) is given as “more effective at repelling mosquitoes than DEET”.

For `Cc1ncc(C[n+]2csc(CCO)c2C)c(N)n1` [thiamine], the “time before the odor fully saturates the skin and becomes effective” value (mosquitoes [2]) is given as “up to 2 weeks” and the “reduction of mosquito bites” value (mosquitoes [2]; 25 to 50 mg three times per day) is given as “effective in reducing mosquito bites”.
